# Measured values as given in US9718790B2, “Triazine derivative and pharmaceutical composition having an analgesic activity comprising the same” (SHIONOGI & CO., LTD., priority 2010, dated 2017).
# Target: human P2X3 receptor (Homo sapiens (Human), UniProt P56373)
# Experiment: Evaluation of human P2X3 receptor inhibitory activity (Fluo-3 calcium fluorescence, FDSS 3000, ATP stimulation);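 further: stimulus was 50 nM ATP with fluorescence followed for 3 min, and the response per well was peak post-ATP fluorescence divided by the reading at measurement start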
# Assay type: cell-based
# Settings: C6BU-1 cells stably expressing human P2X3 receptor
# human P2X3 receptor, sequence (P56373 whole entry): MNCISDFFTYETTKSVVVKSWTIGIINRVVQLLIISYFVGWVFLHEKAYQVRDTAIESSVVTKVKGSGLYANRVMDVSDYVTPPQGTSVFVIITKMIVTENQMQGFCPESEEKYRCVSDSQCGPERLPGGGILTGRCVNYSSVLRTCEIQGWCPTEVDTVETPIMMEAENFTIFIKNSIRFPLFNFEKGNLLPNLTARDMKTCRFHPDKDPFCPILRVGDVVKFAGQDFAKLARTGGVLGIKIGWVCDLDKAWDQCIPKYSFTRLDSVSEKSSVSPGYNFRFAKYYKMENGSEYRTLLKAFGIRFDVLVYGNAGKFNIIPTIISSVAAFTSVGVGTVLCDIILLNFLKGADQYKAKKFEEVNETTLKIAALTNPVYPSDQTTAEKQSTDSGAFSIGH
row,Compound,IC50 [nM]
1,CCn1c(=O)[nH]/c(=N\c2ccc(Oc3ccnc(C(=O)O)c3)cc2)n(Cc2ccc(Cl)cn2)c1=O [Compound I-2211],14
2,COC(=O)C(C)(C)Cn1c(=O)[nH]/c(=N\c2ccc(OC(C)C)c(OC)c2)n(Cc2ccc(C)cc2)c1=O [Compound I-1272],7
3,CCn1c(=O)[nH]/c(=N\c2ccc(Oc3cccc(C(N)=O)n3)cc2)n(Cc2ccc(Cl)cc2)c1=O [Compound I-2145],8
4,Cc1ccc(Cn2c(=O)n([C@@H](C)[C@@H](C)C(=O)O)c(=O)[nH]/c2=N\c2ccc(OC3CCC3)cc2)cc1 [Compound I-1392],18
5,CCCc1ccc(/N=c2\[nH]c(=O)n(C[C@H](C)C(=O)O)c(=O)n2Cc2ccc(C)cc2)cc1OC [Compound I-1365],94
6,Cc1ccc(Cn2c(=O)n(C[C@H](C)C(=O)O)c(=O)[nH]/c2=N\c2cnc(Oc3ccccc3)c(Cl)c2)cc1 [Compound I-1476],262
7,CCn1c(=O)[nH]/c(=N\c2ccc(Oc3ccc(CO)nc3)cc2)n(Cc2ccc(Cl)cc2)c1=O [Compound I-2114],7
8,CC[C@H](C)Oc1ccc(/N=c2\[nH]c(=O)n(C[C@H](C)C(=O)OC)c(=O)n2Cc2ccc(Cl)cc2)cc1 [Compound I-0728],14
9,CCc1nc2ccc(/N=c3\[nH]c(=O)n(CCCCC(=O)OC)c(=O)n3Cc3ccc(C)cc3)cc2s1 [Compound I-2156],2
10,COC(=O)c1ccc(Oc2ccc(/N=c3\[nH]c(=O)n(C)c(=O)n3Cc3ccc(Cl)cc3)cc2)cc1 [Compound I-2058],7
11,COC(=O)CCCn1c(=O)[nH]/c(=N\c2ccc(Oc3ccc(C)nc3)cc2)n(Cc2ccc(Cl)cc2)c1=O [Compound I-1368],5
12,CC(C)Oc1ccc(/N=c2\[nH]c(=O)n(C[C@H]3CC(=O)N([C@@H](C)c4ccccc4)C3)c(=O)n2Cc2ccc(Cl)cc2)cc1F [Compound I-0661],7
13,CCOC(=O)CCn1c(=O)[nH]/c(=N\c2ccc(OC3CCC3)c(Cl)c2)n(Cc2ccc(C)cc2)c1=O [Compound I-1328],12
14,CC(C)Oc1ccc(/N=c2\[nH]c(=O)n(C(C)(C)C(=O)O)c(=O)n2Cc2ccc(Cl)cc2)cc1Cl [Compound I-0651],97
15,CC(C)Oc1ccc(/N=c2\[nH]c(=O)n(Cc3noc(=O)[nH]3)c(=O)n2Cc2ccc(Cl)cc2)cc1F [Compound I-0601],31
16,COC(=O)[C@@H](C)Cn1c(=O)[nH]/c(=N\c2ccc3nc(C)oc3c2)n(Cc2ccc(C)cc2)c1=O [Compound I-1276],78
17,Cc1ccc(Cn2c(=O)n([C@@H](C)[C@@H](C)C(=O)O)c(=O)[nH]/c2=N\c2ccc3nc(C)sc3c2)cc1 [Compound I-1470],10
18,O=C(O)CCn1c(=O)[nH]/c(=N\c2ccc(OC3CCC3)c(Cl)c2)n(Cc2ccc(Cl)cc2)c1=O [Compound I-1333],52
19,CCOC(=O)CCn1c(=O)[nH]/c(=N\c2ccc(Oc3ccnc(O)c3)cc2)n(Cc2ccc(Cl)cc2)c1=O [Compound I-1434],2
20,Cc1oc2ccc(/N=c3\[nH]c(=O)n(CC(CO)CO)c(=O)n3Cc3ccc(Cl)cc3)cc2c1C [Compound I-2072],8
21,Cc1ccc(Oc2ccc(/N=c3\[nH]c(=O)n(CCC(=O)O)c(=O)n3Cc3ccc(Cl)cc3)cc2)c(C)n1 [Compound I-1413],72
22,O=C(O)CCn1c(=O)[nH]/c(=N\c2ccc(Oc3cccnc3)cc2)n(Cc2ccc(Cl)cc2)c1=O [Compound I-1206],43
23,COC(=O)[C@@H](C)Cn1c(=O)[nH]/c(=N\c2ccc3ncccc3c2)n(Cc2ccc(Cl)cc2)c1=O [Compound I-1318],544
24,CCn1c(=O)[nH]/c(=N\c2ccc(Oc3ccsc3C(=O)O)cc2)n(Cc2ccc(Cl)cc2)c1=O [Compound I-2041],109
25,CCOc1ccc(/N=c2\[nH]c(=O)n(CCC(=O)O)c(=O)n2Cc2ccc(C)cc2)c(F)c1F [Compound I-2052],68
26,CCOC(=O)C1(Cn2c(=O)[nH]/c(=N\c3ccc(CC(C)C)c(Cl)c3)n(Cc3ccc(C)cc3)c2=O)CC1 [Compound I-1448],12
27,O=c1[nH]/c(=N\c2ccc3nc(C4CC4)sc3c2)n(Cc2ccc(Cl)cc2)c(=O)n1CC(CO)CO [Compound I-1983],10
28,CC(C)Oc1ccc(/N=c2\[nH]c(=O)n(CCCN/C(=N\C#N)Oc3ccccc3)c(=O)n2Cc2ccc(Cl)cc2)cc1F [Compound I-0613],11

# Same assay, conditions: C6BU-1 cells stably expressing human P2X3 receptor, Fluo-3 fluorescence, FDSS 3000
row,Compound,IC50 [nM]
1,Cc1nc2ccc(/N=c3\[nH]c(=O)n(CC(C)(C)C(=O)O)c(=O)n3Cc3ccc(Cl)cc3)cc2s1 [Compound I-1576],8
2,Cc1cc2cc(/N=c3\[nH]c(=O)n([C@@H](C)[C@@H](C)C(=O)O)c(=O)n3Cc3ccc(Cl)cc3)cc(Cl)c2o1 [Compound I-1588],67
3,CCc1cc2cc(/N=c3\[nH]c(=O)n(C[C@H](C)C(=O)O)c(=O)n3Cc3ccc(Cl)cc3)ccc2o1 [Compound I-1766],18
4,COC(=O)[C@@H](C)Cn1c(=O)[nH]/c(=N\c2ccc(OC(C)C)cc2)n(Cc2ccc(I)cc2)c1=O [Compound I-1080],66
5,Cc1ccc(Cn2c(=O)n(CC(C)(C)C(=O)O)c(=O)[nH]/c2=N\c2ccc3nc(C)sc3c2)cc1 [Compound I-1577],7
6,CC(C)n1cnc2cc(/N=c3\[nH]c(=O)n([C@@H](C)[C@@H](C)C(=O)O)c(=O)n3Cc3ccc(Cl)cc3)ccc21 [Compound I-1772],297
7,CCn1c(=O)[nH]/c(=N\c2ccc(Oc3ccc(OC)nc3)cc2)n(Cc2ccc(Cl)cc2)c1=O [Compound I-1847],6
8,COC(=O)[C@H](C)[C@H](C)n1c(=O)[nH]/c(=N\c2ccc(OC(C)C)cc2)n(Cc2ccc(C)cc2)c1=O [Compound I-1081],30
9,O=C(O)CCn1c(=O)[nH]/c(=N\c2ccc(OCc3cccnc3)cc2)n(Cc2ccc(Cl)cc2)c1=O [Compound I-1632],389
10,Cc1cc(/N=c2\[nH]c(=O)n(C[C@H](C)C(=O)O)c(=O)n2Cc2ccc(C(C)C)cc2)ccc1OC(C)C [Compound I-1017],550
11,CCCOc1ccc(/N=c2\[nH]c(=O)n([C@@H](C)[C@@H](C)C(=O)O)c(=O)n2Cc2ccc(Cl)cc2)cc1 [Compound I-0920],37
12,"COC(=O)C(=O)Cn1c(=O)[nH]/c(=N\c2ccc(OC(C)C)c(C)c2)n(Cc2ccc(Cl)cc2)c1=O [Compound I-0996, 1-(4-chlorobenzyl)-6-(3-mehyl-4-isopropoxyphenylimino)-3-(2-methoxycarbonyl-2-oxoethyl)-1,3,5-triazinane-2,4-dion]",32

# Same assay, conditions: human P2X3 receptor, Test Example 1
row,Compound,IC50 [nM]
1,CCn1c(=O)[nH]/c(=N\c2ccc(Oc3cccc(/C=C/C(=O)O)c3)cc2)n(Cc2ccc(C)cc2)c1=O [Compound I-2344],3
2,CCn1c(=O)[nH]/c(=N\c2ccc(Oc3ccc(NC(=O)NC4CC4)nc3)cc2)n(Cc2ccc(Cl)cc2)c1=O [Compound I-2243],6
3,O=C(O)CCn1c(=O)[nH]/c(=N\c2ccc(Oc3ccc(O)nc3)cc2)n(Cc2ccc(Cl)cc2)c1=O [Compound I-1535],28
4,CCCOc1ccc(/N=c2\[nH]c(=O)n(C[C@H](C)C(=O)OC)c(=O)n2Cc2ccc(C)cc2)cc1Cl [Compound I-0839],12
5,CCn1c(=O)[nH]/c(=N\c2ccc(Oc3cccc(C(=O)O)n3)c(OC)c2)n(Cc2ccc(Cl)cc2)c1=O [Compound I-2423],7
6,CCOC(=O)CCn1c(=O)[nH]/c(=N\c2ccc(Oc3ccc(OC)nc3)cc2)n(Cc2ccc(Cl)cc2)c1=O [Compound I-1523],3
7,CC[C@@H](C)n1c(=O)[nH]/c(=N\c2ccc(Oc3cncc(C(=O)O)c3)cc2)n(Cc2ccc(Cl)cc2)c1=O [Compound I-2483],8
8,CCOC(=O)Cn1c(=O)[nH]/c(=N\c2ccc(Oc3ncccn3)cc2)n(Cc2ccc(Cl)cc2)c1=O [Compound I-2657],7
9,CCn1c(=O)[nH]/c(=N\c2ccc(Oc3cc(C(=O)O)ccn3)cc2)n(Cc2ccc(C)cc2)c1=O [Compound I-2303],7
10,CCn1c(=O)[nH]/c(=N\c2ccc(Oc3ccnc(CNC)c3)cc2)n(Cc2ccc(Cl)cc2)c1=O [Compound I-2245],108
11,CCOC(=O)CCn1c(=O)[nH]/c(=N\c2ccc3oc(CC)c(C)c3c2)n(Cc2ccc(Cl)cc2)c1=O [Compound I-1503],12
12,CCn1c(=O)[nH]/c(=N\c2ccc(Oc3cccc(C(N)=O)n3)cc2)n(Cc2ccc(Cl)cn2)c1=O [Compound I-2240],21
13,CCOC(=O)CCn1c(=O)[nH]/c(=N\c2ccc(Oc3ccon3)cc2)n(Cc2ccc(Cl)cc2)c1=O [Compound I-2434],4
14,COC(=O)[C@@H](C)n1c(=O)[nH]/c(=N\c2ccc(Oc3ccon3)cc2)n(Cc2ccc(Cl)cc2)c1=O [Compound I-2460],35
15,O=c1[nH]/c(=N\c2ccc(Oc3cnsn3)cc2)n(Cc2ccc(Cl)cc2)c(=O)n1CCO [Compound I-2477],15
16,COCc1c(Cl)cc(/N=c2\[nH]c(=O)n(C[C@H](C)C(=O)O)c(=O)n2Cc2ccc(C)cc2)cc1Cl [Compound I-1501],11
17,Cc1ccc(Cn2c(=O)n(C)c(=O)[nH]/c2=N\c2ccc(Oc3cc(C(=O)O)ccn3)cc2)cc1 [Compound I-2343],19
18,CCn1c(=O)[nH]/c(=N\c2ccc(Oc3ccc(C(=O)O)cc3)nc2)n(Cc2ccc(Cl)cc2)c1=O [Compound I-2621],265
19,COC(=O)[C@@H](C)Cn1c(=O)[nH]/c(=N\c2ccc(Oc3ccc(OC)nc3)cc2)n(Cc2ccc(C)cc2)c1=O [Compound I-1522],5
20,CCn1c(=O)[nH]/c(=N\c2ccc(Oc3ccnc(C(=O)O)c3)c(OC)c2)n(Cc2ccc(Cl)cc2)c1=O [Compound I-2295],< 4
21,CCn1c(=O)[nH]/c(=N\c2ccc(Oc3nnn[nH]3)cc2)n(Cc2ccc(Cl)cc2)c1=O [Compound I-2515],346
22,N#Cc1ccc(Oc2ccc(/N=c3\[nH]c(=O)n(C[C@@H](O)CO)c(=O)n3Cc3ccc(Cl)cc3)cc2)cc1 [Compound I-2560],5
